Reference: ChEMBL document CHEMBL6121041, “Design and synthesis of isatin derivative payloaded peptide-drug conjugate as tubulin inhibitor against colorectal cancer” (Eur J Med Chem, 2025)
Active and inactive are the calls of the source. The rule behind the calls is not given here. Residues, ends and D or L forms follow the SMILES beside them. *: point of attachment. X1 = COc1ccc(CN2C(=O)C(=O)c3cc(-c4ccc(OC(=O)CCC(=O)*)cc4)ccc32)cc1

Experiments:
HCT-116 [1] = test: Induction of apoptosis in human HCT-116 cells assessed as downregulation of Bcl-2 protein at 0.8 uM measured after 24 hrs by Western blot analysis; type: functional, cell-based
HCT-116 [2] = test: Induction of apoptosis in human HCT-116 cells assessed as cell fragmentation at 0.4 to 0.8 microM measured after 24 hrs by microscopic analysis; type: functional, cell-based; conditions: dose 0.4-0.8 µM
HCT-116 [3] = test: Induction of apoptosis in human HCT-116 cells assessed as increase in caspase-3 activation level at 0.8 uM measured after 24 hrs by Western blot analysis; type: functional, cell-based
HCT-116 [4] = test: Antitumor activity against human HCT-116 cells xenografted in SPF-grade Balb/c nude mouse model assessed as inhibition of tumor cell growth at 33.86 to 45.17 mg/kg, ip administered daily for 11 days by H and E staining based analysis; type: functional, organism-based; conditions: dose 33.86-45.17 mg/kg, time 11.0 day
HCT-116 [5] = test: Antitumor activity against human HCT-116 cells xenografted in SPF-grade Balb/c nude mouse model assessed as tumor growth inhibition at 33.86 mg/kg, ip administered daily for 11 days relative to control; type: functional; conditions: HCT-116, 264 h, time 11 day, read-out: TGI
HCT-116 [6] = test: Antitumor activity against human HCT-116 cells xenografted in SPF-grade Balb/c nude mouse model assessed as reduction in tumor size at 33.86 to 45.17 mg/kg, ip administered daily for 11 days by photographic analysis; type: functional, organism-based; conditions: dose 33.86-45.17 mg/kg, time 11.0 day
HCT-116 [7] = test: Induction of apoptosis in human HCT-116 cells assessed as upregulation of Bax protein at 0.8 uM measured after 24 hrs by Western blot analysis; type: functional, cell-based
HCT-116 [8] = test: Induction of apoptosis in human HCT-116 cells assessed as morphological changes at 0.4 to 0.8 microM measured after 48 hrs by microscopic analysis; type: functional, cell-based; conditions: dose 0.4-0.8 µM
HCT-116 [9] = test: Inhibition of beta-tubulin expression in human HCT-116 cells at 0.8 uM incubated for 24 hrs by Western blot analysis; type: functional, cell-based
HCT-116 [10] = test: Cell cycle arrest in human HCT-116 cells assessed as accumulation of cells at G2/M phase at 0.4 to 0.8 uM incubated for 24 hrs by PI staining based flow cytometric analysis; type: functional; conditions: dose 0.4-0.8 µM
HCT-116 [11] = test: Inhibition of colony formation in human HCT-116 cells at 0.4 to 0.8 uM measured after 10 days by crystal violet staining based inverted microscopic analysis; type: functional, cell-based; conditions: dose 0.4-0.8 µM, time 10.0 day
[12] = Toxicity in SPF-grade Balb/c nude mouse xenografted with human HCT-116 cells assessed as average body weight at 33.86 to 45.17 mg/kg, ip measured after 10 days; type: organism-based; conditions: in vivo, 240 h, dose 33.86-45.17 mg/kg, time 10 day
HCT-116 [13] = test: Antiproliferative activity against human HCT-116 cells assessed as reduction in cell viability incubated for 48 hrs by MTT assay; type: functional, cell-based; conditions: HCT-116, 48 h
HCT-116 [14] = test: Induction of apoptosis in human HCT-116 cells assessed as increase in PARP activation level at 0.8 uM measured after 24 hrs by Western blot analysis; type: functional, cell-based
HCT-116 [15] = test: Cell cycle arrest in human HCT-116 cells assessed as increase in p53 expression at 0.8 uM incubated for 24 hrs by Western blot analysis; type: functional, cell-based
HCT-116 [16] = test: Inhibition of wound closure in human HCT-116 cells at 0.4 uM measured after 48 hrs by wound healing assay; type: functional, cell-based
HCT-116 [17] = test: Cell cycle arrest in human HCT-116 cells assessed as increase in cyclin B1 expression at 0.8 uM incubated for 24 hrs by Western blot analysis; type: functional, cell-based
HCT-116 [18] = test: Cell cycle arrest in human HCT-116 cells assessed as decrease in CDK1 expression at 0.8 uM incubated for 24 hrs by Western blot analysis; type: functional, cell-based
HCT-116 [19] = test: Cell cycle arrest in human HCT-116 cells assessed as increase in p21 expression at 0.8 uM incubated for 24 hrs by Western blot analysis; type: functional, cell-based
HCT-116 [20] = test: Induction of apoptosis in human HCT-116 cells at 0.4 to 0.8 uM incubated for 24 hrs by Annexin V-FITC/PI staining based flow cytometric analysis; type: functional, cell-based; conditions: dose 0.4-0.8 µM
HCT-116 [21] = test: Induction of apoptosis in human HCT-116 cells assessed as morphological changes at 0.4 to 0.8 microM measured after 24 hrs by microscopic analysis; type: functional, cell-based; conditions: dose 0.4-0.8 µM
[22] = Cytotoxicity against HUVEC cells assessed as reduction in cell viability incubated for 48 hrs by MTT assay; type: toxicity, cell-based; conditions: human
MGC-803 = test: Antiproliferative activity against human MGC-803 cells assessed as reduction in cell viability incubated for 48 hrs by MTT assay; type: functional, cell-based; conditions: MGC-803, 48 h
K562 = test: Antiproliferative activity against human K562 cells assessed as reduction in cell viability incubated for 48 hrs by MTT assay; type: functional, cell-based; conditions: K562, 48 h
786-0 = test: Antiproliferative activity against human 786-0 cells assessed as reduction in cell viability incubated for 48 hrs by MTT assay; type: functional, cell-based; conditions: 786-0, 48 h
HCC827 = test: Antiproliferative activity against human HCC827 cells assessed as reduction in cell viability incubated for 48 hrs by MTT assay; type: functional, cell-based; conditions: HCC827, 48 h
[23] = Cytotoxicity against HK-2 cells assessed as reduction in cell viability incubated for 48 hrs by MTT assay; type: toxicity, cell-based; conditions: human
HepG2 = test: Antiproliferative activity against human HepG2 cells assessed as reduction in cell viability incubated for 48 hrs by MTT assay; type: functional, cell-based; conditions: HepG2, 48 h

Row | IC50 (HCT-116 [13]) | IC50 (MGC-803) | IC50 (K562) | IC50 (786-0) | IC50 (HCC827) | IC50 (HepG2) | Compound | IC50 at 48 h [22] | IC50 at 48 h [23] | also measured
1 | 0.23 µM |  |  |  |  |  | COc1ccc(CN2C(=O)C(=O)c3cc(-c4ccc(OC(=O)CCC(=O)NCCCC[C@H](NC(C)=O)C(=O)N5CCC[C@H]5C(=O)N[C@@H](CO)C(=O)N[C@@H](CO)C(=O)N5CCC[C@H]5C(=O)N5CCC[C@H]5C(=O)N[C@@H](CCC(=O)O)C(=O)N[C@@H](CCC(=O)O)C(N)=O)cc4)ccc32)cc1 (Ac-K(X1)PSSPPEE-NH2) | 43 µM |  | Activity (HCT-116 [1]): Active; Activity (HCT-116 [2]): Active; Activity (HCT-116 [3]): Active; Activity (HCT-116 [4]): Active; inhibition in vivo at 33.86 mg/kg (HCT-116 [5]): 47%; Activity (HCT-116 [6]): Active; Activity (HCT-116 [7]): Active; Activity (HCT-116 [8]): Active; More Evident Apoptotic State Observed; inhibition (HCT-116 [9]): Active; Activity (HCT-116 [10]): Active; inhibition (HCT-116 [11]): Active; Activity [12]: ~ 10 g; Activity (HCT-116 [14]): Active; Activity (HCT-116 [15]): Active; inhibition (HCT-116 [16]): Active; Activity (HCT-116 [17]): Active; Activity (HCT-116 [18]): Active; Activity (HCT-116 [19]): Active; Activity (HCT-116 [20]): Active; Activity (HCT-116 [21]): Active
2 | > 100 µM |  |  |  |  |  | CC(=O)N[C@@H](CCCCN)C(=O)N1CCC[C@H]1C(=O)N[C@@H](CO)C(=O)N[C@@H](CO)C(=O)N1CCC[C@H]1C(=O)N1CCC[C@H]1C(=O)N[C@@H](CCC(=O)O)C(=O)N[C@@H](CCC(=O)O)C(N)=O (Ac-KPSSPPEE-NH2) | > 100 µM |  | 
3 | 0.786 µM | 29.2 µM | 0.81 µM | 40.4 µM | 34.7 µM | > 100 µM | COc1ccc(CN2C(=O)C(=O)c3cc(-c4ccc(CO)cc4)ccc32)cc1 | 18.8 µM | 12.6 µM | 
4 | 0.728 µM | 76.5 µM | 0.5 µM | 30.8 µM | 4.15 µM | 71 µM | COc1ccc(CN2C(=O)C(=O)c3cc(-c4ccc(SC)cc4)ccc32)cc1 | 25 µM | 13.4 µM | 
5 | > 100 µM | > 100 µM | 89.4 µM | > 100 µM | 13.7 µM | > 100 µM | COc1ccc(CN2C(=O)C(=O)c3cc(-c4ccc(OC)cc4)cc(N)c32)cc1 | > 100 µM | > 100 µM | 
6 | 18.7 µM | 91.1 µM | > 100 µM | 87.6 µM | 4.15 µM | > 100 µM | COc1ccc(CN2C(=O)C(=O)c3cc(-c4ccc(C(=O)O)cc4)ccc32)cc1 | 34.7 µM | 30.9 µM | 
